Experimental data from US4510144A, “Methods of imparting immunomodulating activity with dihydrothiazolo purine derivatives” (Newport Pharmaceuticals International, priority 1982, dated 1985).
Entries after “also recorded” stand apart in the source; their conditions may differ.

Tests used:
[1] = test system: murine spleen cells, Con A induced (T-cells); assay: Con A induced lymphocyte proliferation in mouse spleen cells in vitro; type: cell-based, mouse (Balb/C); details: for effect on Con A induced proliferation (T-cell response), in words: in vitro; for activity at 25 µg/mL: drug 25,000 ng/ml
Excerpt: (§1) (1) Mitogen-(Lipopolysaccharide, LPS or Con A) induced lymphocyte proliferation using murine spleen cells (in vitro)
(§2) 1. […] LPS is a mitogen which acts preferentially on B-cells. […] Con A is considered a T-cell mitogen.
(§3) 1. Balb/C male mice, 7-8 weeks old, are used up to 20-24 weeks of age.
(§4) 2. The animals are sacrificed by cervical dislocation and the animals' left sides swabbed with 70% ethanol. An incision is made between the lower ribs and pelvis, laterally from front to back, and the skin retracted. Aseptic technique is to be observed from this point on.
(§5) 3. The spleen is gently removed with sterile forceps. […] When all spleens have been collected and cleaned they are placed in a second petri dish containing 3 ml cold RPMI.
(§6) 4. Spleen cell suspensions are prepared by gentle mincing of the tissue with a sterile blade and filtering through #100 stainless steel mesh.
(§7) 6. An aliquot of the above suspension is prepared for cell counting as follows: 0.1 ml of suspension is diluted to 1.0 ml with 3% acetic acid and let stand at room temperature for at least five minutes. The sample is then diluted 1:100 with "Isoton II" (Curtis-Matheson Co.) and counted in a coulter counter.
(§8) MURINE SPLENOCYTE STIMULATION WITH CONCANAVALIN A (CON A), LIPOPOLYSACCHARIDE (LPS), AND ALLOGENEIC SPLENOCYTES (LMC).
(§9) There is set forth below the standard procedure which should be modified according to the solubility and other properties of the particular compound tested.
(§10) Add ~10 ml RPMI to 1.79 g HEPES and vortex until completely dissolved. […] Allow to warm temperature before use.
5. Con A (Calbiochem)--100 mg/ml NaCl injection solution (McGaw), filter, aliquot in 1 ml, and store at -70° C.
(§11) 8. Tritiated thymidine (^3 H-TdR, Schwartz-Mann, 6 Ci/mM). Remove a slightly larger volume of ^3 H-TdR than needed from vial with a 1 cc syringe and place volume in the cap of a small sterile plastic tube. […] Vortex thoroughly before adding to plates.
(§12) 1. Animals are sacrificed by cervical dislocation killing one from each group and processing the cells individually before killing the next animal. Swab each animal with 70% ethanol before surgery. […] Use 8 vertical strokes (or enough to break up all tissue) with Teflon-tipped homogenizer. Filter each sample through a 100 mesh screen into a 50 ml tube. […] After all samples have been spun, vortex each briefly and let sit for 1 hour. Vortex each sample ~5 seconds, waiting ~10 seconds between each sample. Let sit 5 minutes, then pipet cell suspension into 5 ml (12×75 mm) tube being careful not to remove any sediment. Remove 50 ul cell suspension using micropipetter, carefully wipe pipet tip with kimwipe and pipet into 20 ml Isoton in Coulter counter vial, rinsing pipet several times in the Isoton. Add 6 drops of CyMet and swirl vial to mix. Use the following Coulter counter settings: Amplification-1, Threshold-10, and Aperture Current-1. Clean counter with Isoterge the morning of experiment and count background before standardizing with CH 0.60 Hematology Controls. After cell counts are obtained, dilute to 6×10^6 cells/ml with supplemented RPMI and aliquot into 3 tubes for the 3 assays.
(§13) 1. Pipet 100 μl control media (supplemented RPMI) or appropriate dilution of mitogen (starting with lowest concentration) into microtiter plate using Titertek multi-channel pipetter. Place plates in 37° C. CO2 incubator with CO2 set at 0.5 after each plate has been pipetted. Pipet 100 μl responder cells into wells starting with most dilute mitogen concentration. Place plates in incubator as they are filled and after all plates are in incubator, let sit for 10-20 minutes. Wrap plates with plastic wrap, recover with top, replace in incubator, and reset CO2 to ~0.05. Save ~50 ml supplemented RPMI at 4° C. for thymidine dilution. After ~44 hours warm the RPMI to 37° C. in incubator. Dilute tritiated Thymidine 1:100 in warmed RPMI. Use Titertek to add 50 μl Thymidine to each well. Treat plates as above and incubate overnight (~18 hours).

[2] = test system: murine spleen cells, LPS induced (B-cells); assay: LPS induced lymphocyte proliferation in mouse spleen cells in vitro; type: cell-based, mouse (Balb/C); details: for activity at 25 µg/mL: drug 25,000 ng/ml; for effect on B-cell response / LPS induced proliferation, in words: in vitro
Excerpt: as §1, §2, §3, §4, §5, §6, §7, §8, §9, §10
6. LPS (Sigma, E, coli serotype #011:84)--~1 mg/ml. […] Remove ~10 ml for dissolving HEPES (0.358 g) and filter HEPES solution. Add four 25 mg bottles of LPS to remaining media and incubate at 37° C. for 1 hour. Filter through 0.22 μm filters, add filtered HEPES, aliquot in 2 ml and store at -70° C.
as §11, §12
as §13, with “dilution.” for “dilution. After ~44 hours warm the RPMI to 37° C. in incubator. Dilute tritiated Thymidine 1:100 in warmed RPMI. Use Titertek to add 50 μl Thymidine to each well. Treat plates as above and incubate overnight (~18 hours).”

[3] = test system: antibody production to sheep red blood cells (SRBC); assay: antigen (SRBC) dependent antibody synthesis in vivo (IgM plaques); parameters: species or system Balb/C mice; details: for effect on antibody production in vivo, in words: SRBC immunized mice; for % change from control, antibody response to SRBC: Table X
Procedure: (3) Antigen (sheep red blood cell, SRBC) dependent antibody synthesis (in vivo)
as §9
1. A solution containing 500 μg/ml NPT is prepared by adding a preweighed amount of the drup powder to sterile BPS (phosphate buffered saline) and sonicating the solution for 30 minutes.
1. NPT drug solution is made by dissolving 500 μg NPT per mil PBS.
1. A 1.4% suspension of agarose in PBS (7 g in 500 ml) is autoclaved for 15 min.
1. Mice are immunized as follows: sheep blood (sheep #23) is received weekly from Hyland labs. It is asceptically collected in two volumes of Alseviers to one volume of blood.
6. The cell count is determined and the stock solution is diluted to 4×10^7 cells/ml. This final suspension is used for immunization.
7. Each mouse is immunized by i.v. injection into the lateral tail vein (warmed in a 50° C. water bath for veinous dilation) with 0.1 ml SRBC (sheep red blood cell) suspensions; the final concentration of SRBC's is 4×10^6 per mouse.
1. Mice are treated by i.p. injection on days […], 1, 2, and 3. A syringe (1 cc) is fitted with a one-half inch, 26 gauge needle. The needle is introduced at a 45° angle along the right side of the linea alba. A 0.2 ml volume is given to both drug and control treated groups.
2. Drug groups are given 0.2 ml of a desired concentration NPT solution which, for a 20 g mouse, is […].
1. Spleens are removed asceptically and placed individually in Falcon #2025 tissue culture tubes containing 3 ml MEM. The tubes are then stored on ice.
2. Spleens are homogenized in the same tube with a teflon pestle attached to a G. K. Heller variable speed reversible motor connected with a G. K. Heller GT-21 motor controller setting #6.
6. The cell count is obtained and the stock suspension is diluted to 1×10^7 cells/ml. The Coulter counter threshhold is set at 10. Red cells are lysed with three drops of Zap isoton.
1. Thirty-five hundredths gram agarose and 0.53 grams MEM powder are placed into an Erlenmeyer flask. Fifty ml of distilled H2 O is then added to the flask.
1. Five ml sheep blood (same batch as used for immunization) is washed three times in PBS using an IEC Clinical Standard Centrifuge, speed #4 (2800 RPM) for 10 min.
1. Agar plates are removed from refrigerator and allowed to warm to room temperature. They are labeled in triplicate for each experimental group.
2. Agar-filled tubes are removed from the water bath. One-tenth of the 10% SRBC's and 0.1 ml spleen cell suspension are added to each agar tube. The tubes are agitated on a Vortex mixer.
3. The contents of the tubes are poured immediately into agar base plates and swirled until a smooth layer is formed. The plates are placed on a level surface until the agar solidifies.
4. The plates are incubated at 37° C. in a humidified atmosphere of 5% CO2 and 95% air for 90 min.
6. Plates are removed from incubator and 1 ml of the diluted complement is added to each plate.
7. Plates are then incubated another 30-45 minutes at 37° C. Plates are then removed from incubator and counted using oblique light.

[4] = test system: splenocytes from athymic mice (theta positive cells); assay: induction of theta positive cells in splenocytes from athymic (nude) mice in vitro; type: cell-based; details: in vitro
Excerpt: (4) Induction of theta positive cells in nude mice (in vitro).

[5] = 0.05 mg/kg, *P ≤ 0.001 where starred
[6] = Mus musculus, Con A .375 μg/ml, read-out: Con A D/C (maximum values)
[7] = Mus musculus, B-cell, LPS 5 μg/ml, read-out: LPS D/C (maximum values)
[8] = 0.5 mg/kg, *P ≤ 0.001 where starred
[9] = 5.0 mg/kg, *P ≤ 0.001 where starred, NPT 16485 N.S.

Structure (SMILES) | effect on antibody production in vivo, in words [3] | % change from control, antibody response to SRBC [3, 5] | activity at 25 µg/mL [1, 6] [%] | activity at 25 µg/mL [2, 7] [%] | % change from control, antibody response to SRBC [3, 8] | effect on B-cell response / LPS induced proliferation, in words [2] | other results
CSc1ncnc2c1nc1n2CCS1 [NPT 16439, 3-methylmercapto-7,8-dihydrothiazolo-[3,2e]-purine] | potent inhibitor of antibody production | -40% |  |  |  |  | activity at 4.5 µg/mL ([1]; Mus musculus, drug 4,500 ng/ml, Con A .375 μg/ml, read-out: Con A D/C (maximum values)): 57%; effect on Con A induced proliferation (T-cell response), in words [1]: potent inhibitors; effect on Con A induced proliferation (T-cell response), in words ([1]; listed as 16439): capable of inhibiting; effect on Con A induced proliferation (T-cell response), in words ([1]; listed as Ib): inhibiting the T-cell response; activity at 4.5 µg/mL ([2]; Mus musculus, B-cell, drug 4,500 ng/ml, LPS 5 μg/ml, read-out: LPS D/C (maximum values)): 100%; effect on antibody production in vivo, in words ([3]; listed as 16439): capable of inhibiting; % change from control, antibody response to SRBC ([3]; dose = 0.2 mg/kg): -63%
Nc1ncnc2c1nc1n2CCS1 [NPT 16422, 3-amino-7,8-dihydrothiazolo-[3,2e]-purine] | capable of inhibiting |  | 20 | 37 |  |  | effect on Con A induced proliferation (T-cell response), in words [1]: potent inhibitors; also recorded: capable of inhibiting
Oc1c2ncnc-2nc2n1CCS2 [NPT 16450, 6-hydroxy-7,8-dihydrothiazolo-[3,2a]-purine] |  | -64% | 107 | 118 | +15% |  | % change from control, antibody response to SRBC [3, 9]: +36%
CSc1nc(O)c2nc3n(c2n1)CCS3 [NPT 16472, 3-hydroxy-5-methylmercapto-7,8-dihydrothiazolo-[3,2e]-purine] |  |  |  |  |  | stimulating the B-cell response | activity at 0.01 µg/mL ([1]; Mus musculus, drug 10 ng/ml, Con A .375 μg/ml, read-out: Con A D/C (maximum values)): 100%; activity at 0.01 µg/mL ([2]; Mus musculus, B-cell, drug 10 ng/ml, LPS 5 μg/ml, read-out: LPS D/C (maximum values)): 131%; % change from control, antibody response to SRBC ([3]; dose = 0.035 mg/kg, P < 0.05): +13%
O=c1c2nc3n(c2nc2n1CCS2)CCS3 [NPT 16449, 6-hydroxy-Bis-(3,4-dihydrothiazolo-8,9-dihydrothiazolo)-[3,2e-2,3f]purine] | enhancement of production of specific antibodies in vivo | +183% |  |  | +59% | enhance B-cell proliferation | activity at 21 µg/mL ([1]; Mus musculus, drug 21,000 ng/ml, Con A .375 μg/ml, read-out: Con A D/C (maximum values)): 100%; activity at 21 µg/mL ([2]; Mus musculus, B-cell, drug 21,000 ng/ml, LPS 5 μg/ml, read-out: LPS D/C (maximum values)): 157%; effect on B-cell response / LPS induced proliferation, in words ([2]; listed as IVa): stimulating the B-cell response
Oc1ncnc2nc3n(c12)CCS3 [NPT 16485, 6-hydroxy-7,8-dihydrothiazolo-[2,3f]-purine] | enhancement of production of specific antibodies in vivo | +28% | 118 | 185 | +134% | enhance B-cell proliferation | effect on B-cell response / LPS induced proliferation, in words ([2]; listed as IIa): stimulating the B-cell response; % change from control, antibody response to SRBC [3, 9]: +1.7%
c1ccc([C@H]2CN3CCSC3=N2)cc1 [Levamisole, reference compound] |  |  |  |  |  |  | production of theta positive (T) cells, in words [4]: does not possess this property
